Active and inactive are the calls of the source. No cut-off for these calls is given here.
How the values were obtained:
HT-1080 [1] = assay: Anti-ferroptotic activity against Erastin-induced human HT-1080 cells assessed as inhibition of ferroptosis incubated for 72 hrs by CCK-8 assay; assay type: functional, cell-based
HT-1080 [2] = assay: Anti-ferroptotic activity against Erastin-induced ferroptosis in human HT-1080 cells assessed as inhibition of lipid ROS production at 10 uM incubated for 24 hrs by C11-BODIPY 581/591 based flow cytometry relative to control; assay type: functional; settings: HT-1080, 24 h, values are per cent of control
HT-1080 [3] = assay: Anti-ferroptotic activity against Erastin-induced ferroptosis in human HT-1080 cells assessed as inhibition of lipid peroxidation production at 10 uM incubated for 24 hrs by C11-BODIPY 581/591 based flow cytometry relative to control; assay type: functional; settings: HT-1080, 24 h, values are per cent of control
Mus musculus = assay: Neuroprotective activity against transient middle cerebral artery occlusion induced ischemia stroke female SPF C57 mouse model assessed as reduction in cerebral infarct volume at 5 mg/kg,iv measured after 24 hrs by TTC staining based analysis relative to control; assay type: functional; design: scale not given: the % may be the effect or the level left
Hippocampus = assay: Anti-ferroptotic activity against glutamate-induced rat Hippocampus assessed as inhibition of ferroptosis; assay type: functional, tissue-based
[4] = Antioxidant activity assessed as DPPH radical scavenging activity at 0.4 uM incubated for 30 mins by Beckman Coulter analysis relative to control; assay type: functional
N2a [5] = assay: Cytoprotective activity against oxygen-glucose deprivation/reoxygenation induced cell injury in mouse N2a cells assessed as upregulation of SLC7A11 expression at 1 uM incubated for 2 hrs under hypoxia condition and measured after 24 hrs by Western blotting analysis; assay type: functional, cell-based; settings: time 26.0 hrs
[6] = Apparent permeability of compound at 10 uM incubated for 16 hrs by PAMPA based LC-MS/MS analysis; assay type: ADME
N2a [7] = assay: Cytoprotective activity against oxygen-glucose deprivation/reoxygenation induced cell injury in mouse N2a cells assessed as upregulation of GPX4 expression at 1 uM incubated for 2 hrs under hypoxia condition and measured after 24 hrs by Western blotting analysis; assay type: functional, cell-based; settings: time 26.0 hrs
MEF = assay: Anti-ferroptotic activity against tamoxifen induced Gpx4 knockout mouse MEF cells assessed as inhibition of ferroptosis incubated for 72 hrs by AquaBluerTM assay; assay type: functional, cell-based
[8] = Homo sapiens, HT-1080, 72 h, read-out: IC50

## Cn1nnc(-c2ccc(O)c(NC3CCCCC3)c2)n1
HT-1080 [1]; [8]
  IC50: > 1000 nM

## Cc1cc(NC2CCCCC2)ccc1-c1nnn(C)n1
HT-1080 [1]; [8]
  IC50: 990 nM

## CCOC(=O)c1ccc(NC2CCCCC2)c(N)c1
HT-1080 [2]
  response, % of control at 10 µM: 2.29%
HT-1080 [3]
  response, % of control at 10 µM: 0.58%
Mus musculus
  Activity: 9.98%
Hippocampus
  IC50: 90 nM
[4]
  inhibition: inactive
N2a [5]
  Activity: Active
HT-1080 [1]; [8]
  IC50: 60 nM
[6]
  Papp at 16 h, 10 µM: 6.76 ×10⁻⁶ cm/s
N2a [7]
  Activity: Active

## Oc1cc(O)cc(/C=C/c2ccc(O)cc2O)c1 [OXYRESVERATROL]
HT-1080 [1]; ht-1080
  IC50: Not Active

## Cn1nnc(-c2ccc(NC3CCCCC3)c(NCc3ccccc3)c2)n1
HT-1080 [1]; [8]
  IC50: > 1000 nM

## Cn1nnc(-c2ccc(NC3CCCCC3)cc2Cl)n1
HT-1080 [1]; [8]
  IC50: > 1000 nM

## CCn1nnc(-c2ccc(NC3CCCCC3)cc2)n1
HT-1080 [1]; [8]
  IC50: 8510 nM

## O=C1c2c(O)cc(O)cc2O[C@H](c2ccc(O)c(O)c2)[C@H]1O [(+)-TAXIFOLIN]
HT-1080 [1]; [8]
  IC50: > 10000 nM

## Cn1nnc(-c2ccc(NC3CCCCC3)cc2F)n1
HT-1080 [1]; [8]
  IC50: > 1000 nM

## Cn1nnc(-c2cccc(NC3CCCCC3)c2N)n1
HT-1080 [1]; [8]
  IC50: > 1000 nM

## Cc1c(-c2nnn(C)n2)ccc(NC2CCCCC2)c1N
HT-1080 [1]; [8]
  IC50: 44 nM

## Cn1nnc(-c2cc(N)c(NC3CCCCC3)cc2Cl)n1
HT-1080 [1]; [8]
  IC50: 17 nM

## Cn1nnc(-c2ccc(NC3CCCCC3)c(N)c2)n1
HT-1080 [1]; [8]
  IC50: 30 nM

## COc1ccc(Nc2ccc(-c3nnn(C)n3)cc2NC2CCCCC2)cc1
HT-1080 [1]; [8]
  IC50: 81 nM

## Clc1cccc(CNC2=Nc3ccccc3NC23CCNCC3)c1
MEF
  IC50: 22 nM

## FC(F)(F)Cn1nnc(-c2ccc(NC3CCCCC3)cc2)n1
HT-1080 [1]; [8]
  IC50: > 10000 nM

## Cn1nnc(-c2cnc(NC3CCCCC3)s2)n1
HT-1080 [1]; [8]
  IC50: > 1000 nM

## Cn1nnc(-c2ccc(NC3CCCCC3)cc2C(F)(F)F)n1
HT-1080 [1]; [8]
  IC50: > 1000 nM

## Cc1cc(NC2CCCCC2)c(N)cc1-c1nnn(C)n1
HT-1080 [1]; [8]
  IC50: 71 nM
